Drawing on ChEMBL document CHEMBL3046580, “Synthesis of Some 2-Aryloxymethyl-1, 3, 4-thiadiazolo[2, 3-b]-quinazolin-4-ones and 2-Aryloxymethyl-5-substituted-1, 3, 4-thiadiazolo[3, 2-a]-s-triazin-7-thiones as Potential Biocides” (1990), this text covers inhibition and Activity for 17 compounds.

What all share (format): functional
Assay [1] concerns Bipolaris oryzae. In words: Antifungal activity against Bipolaris oryzae assessed as fungus colony inhibition at 10 ppm measured after 96 hr by agar dilution method.
For assay [2], the system named is Aspergillus niger. In words: Antifungal activity against Aspergillus niger assessed as fungus colony inhibition at 1000 ppm measured after 96 hr by agar dilution method. (In general: In agar dilution the substance is mixed into plates at graded concentrations.)
In assay [3] the test system is Aspergillus niger. The assay is described as follows: Antifungal activity against Aspergillus niger assessed as fungus colony inhibition at 10 ppm measured after 96 hr by agar dilution method.
For another assay, the system named is Sorghum halepense. The assay is described as follows: Herbicidal activity against Sorghum halepense (Johnson grass) assessed as killing at 6 kg/ha by post-emergent activity assay.
Assay [4] concerns Aspergillus niger. The assay is described as follows: Antifungal activity against Aspergillus niger assessed as fungus colony inhibition at 100 ppm measured after 96 hr by agar dilution method.
Assay [5] relates to Bipolaris oryzae. In words: Antifungal activity against Bipolaris oryzae assessed as fungus colony inhibition at 100 ppm measured after 96 hr by agar dilution method.
Assay [6] relates to Bipolaris oryzae. The assay is described as follows: Antifungal activity against Bipolaris oryzae assessed as fungus colony inhibition at 1000 ppm measured after 96 hr by agar dilution method.
The test system of a further assay is Setaria viridis. In words: Herbicidal activity against Setaria viridis (green foxtail) assessed as killing at 6 kg/ha by post-emergent activity assay.
The next assay relates to Triticum aestivum. In words: Herbicidal activity against Triticum aestivum (wheat) assessed as killing at 6 kg/ha by post-emergent activity assay.
In a further assay the test system is Echinochloa crus-galli. In words: Herbicidal activity against Echinochloa crus-galli (barnyard grass) assessed as killing at 6 kg/ha by post-emergent activity assay.
The test system of the next assay is Abutilon theophrasti. The assay is described as follows: Herbicidal activity against Abutilon theophrasti (velvetleaf) assessed as killing at 6 kg/ha by post-emergent activity assay.

For orientation: inhibition means the share of the control response that was lost under treatment. In the case of `Cc1ccc(OCc2nn3c(=O)c4ccccc4nc3s2)cc1C`, the inhibition at 10 ppm is 21.3% in the assay on Bipolaris oryzae [1] and 12.8% in the assay on Aspergillus niger [3]. In addition, the inhibition at 1000 ppm was found to be 42.2% in the assay with Aspergillus niger [2] and 50.2% in the assay on Bipolaris oryzae [6]. The Activity in the assay with Sorghum halepense turned out to be 60%; with Setaria viridis, 50%; with Triticum aestivum it was 40%; in the assay on Echinochloa crus-galli, 50%; in the assay with Abutilon theophrasti it was 50%. Moreover, the inhibition at 100 ppm in the assay with Aspergillus niger [4] is 24.4%; in the assay with Bipolaris oryzae [5], 38.6%.
For `Cc1ccc(OCc2nn3c(C)nc(=S)nc3s2)c(C)c1`, the inhibition at 10 ppm in the assay with Bipolaris oryzae [1] was determined as 27.4%; with Aspergillus niger [3], 18.6%. Moreover, the results for the inhibition at 1000 ppm in the assay on Aspergillus niger [2] and with Bipolaris oryzae [6] were 51.4% and 59.5%, respectively. Further, the Activity in the assay with Sorghum halepense is recorded as 60%; in the assay on Setaria viridis, 10%; in the assay on Triticum aestivum, 50%; in the assay on Echinochloa crus-galli it was 40%; in the assay with Abutilon theophrasti, 20%. In addition, the inhibition at 100 ppm in the assay with Aspergillus niger [4] turned out to be 30%; in the assay on Bipolaris oryzae [5], 39.3%.
For the compound `Cc1ccc(OCc2nnc(Nc3ccccc3C(=O)O)s2)cc1C`, the inhibition at 10 ppm was determined as 25.2% in the assay on Bipolaris oryzae [1] and 19% with Aspergillus niger [3]. Further, the inhibition at 1000 ppm was determined as 50.2% in the assay with Aspergillus niger [2] and 57.4% in the assay on Bipolaris oryzae [6]. Besides, the figures for the inhibition at 100 ppm with Aspergillus niger [4] and in the assay with Bipolaris oryzae [5] were 29.1% and 30.4%, respectively.
In the case of `Cc1ccc(OCc2nn3c(-c4ccc(Cl)cc4)nc(=S)nc3s2)c(C)c1`, the values for the inhibition at 10 ppm in the assay with Bipolaris oryzae [1] and with Aspergillus niger [3] were 31.2% and 20.4%, respectively. Further, the values for the inhibition at 1000 ppm with Aspergillus niger [2] and in the assay on Bipolaris oryzae [6] were 52.3% and 60%, respectively. Also, the Activity was 80% in the assay with Sorghum halepense; 90% with Setaria viridis; 0% in the assay with Triticum aestivum; 90% with Echinochloa crus-galli; 90% in the assay on Abutilon theophrasti. The inhibition at 100 ppm amounted to 31.4% in the assay with Aspergillus niger [4] and 49.1% with Bipolaris oryzae [5].
In the case of `Cc1ccc(OCc2nnc(NC(=S)NC(=O)c3ccc(Cl)cc3)s2)c(C)c1`, the inhibition at 10 ppm is 22.8% in the assay with Bipolaris oryzae [1] and 18.4% in the assay on Aspergillus niger [3]. The inhibition at 1000 ppm in the assay with Aspergillus niger [2] was determined as 50.3%; with Bipolaris oryzae [6] it was 55.2%. For the same compound, the inhibition at 100 ppm in the assay on Aspergillus niger [4] turned out to be 29%; with Bipolaris oryzae [5] it was 32.4%.
Turning to `O=C(O)c1ccccc1Nc1nnc(COc2ccc(Cl)cc2Cl)s1`, the results for the inhibition at 10 ppm with Bipolaris oryzae [1] and with Aspergillus niger [3] were 60.8% and 68.5%, respectively. Besides, the inhibition at 1000 ppm with Aspergillus niger [2] came out at 84.8%; in the assay on Bipolaris oryzae [6], 87.4%. For the same compound, the inhibition at 100 ppm in the assay with Aspergillus niger [4] is 73%; in the assay with Bipolaris oryzae [5], 75.3%.
On to `O=C(COc1ccc(Cl)cc1Cl)NC(=S)Nc1nnc(COc2ccc(Cl)cc2)s1`, for which the inhibition at 10 ppm in the assay on Bipolaris oryzae [1] was found to be 24.2%; in the assay on Aspergillus niger [3] it was 13%. Further, the inhibition at 1000 ppm in the assay on Aspergillus niger [2] worked out at 47%; in the assay with Bipolaris oryzae [6], 57.2%. Further, the inhibition at 100 ppm amounted to 25.4% in the assay with Aspergillus niger [4] and 36.2% in the assay with Bipolaris oryzae [5].
Regarding `Cc1ccc(OCc2nnc(Nc3ccccc3C(=O)O)s2)cc1`, the inhibition at 10 ppm in the assay with Bipolaris oryzae [1] is 22.2%; in the assay with Aspergillus niger [3] it was 20.9%. The inhibition at 1000 ppm is 52.2% in the assay on Aspergillus niger [2] and 59.1% in the assay on Bipolaris oryzae [6]. Moreover, the inhibition at 100 ppm is 31% in the assay on Aspergillus niger [4] and 39.1% in the assay on Bipolaris oryzae [5].
For `O=C(COc1ccc(Cl)cc1Cl)NC(=S)Nc1nnc(COc2ccc(Cl)cc2Cl)s1`, the inhibition at 10 ppm in the assay with Bipolaris oryzae [1] amounted to 21.9%; with Aspergillus niger [3], 12.4%. Further, the inhibition at 1000 ppm is 46.4% in the assay with Aspergillus niger [2] and 54% in the assay on Bipolaris oryzae [6]. In addition, the inhibition at 100 ppm came out at 25.2% with Aspergillus niger [4] and 32% in the assay with Bipolaris oryzae [5].
`COC(=O)Nc1nc2ccccc2[nH]1` [CARBENDAZIM]: the inhibition at 10 ppm in the assay on Bipolaris oryzae [1] came out at 78.3%; with Aspergillus niger [3] it was 78.6%. For the same compound, the inhibition at 1000 ppm came out at 98.8% in the assay with Aspergillus niger [2] and 98% in the assay on Bipolaris oryzae [6]. In addition, the inhibition at 100 ppm in the assay on Aspergillus niger [4] stood at 84.4%; with Bipolaris oryzae [5] it was 85.2%.
On to `O=C(O)c1ccccc1Nc1nnc(COc2ccccc2Cl)s1`, for which the figures for the inhibition at 10 ppm in the assay on Bipolaris oryzae [1] and in the assay on Aspergillus niger [3] were 22.2% and 14%, respectively. The values for the inhibition at 1000 ppm in the assay with Aspergillus niger [2] and with Bipolaris oryzae [6] were 47.3% and 52.4%, respectively. Moreover, the inhibition at 100 ppm in the assay with Aspergillus niger [4] turned out to be 25.8%; in the assay on Bipolaris oryzae [5], 30.4%.
Take `S=c1nc(COc2ccc(Cl)cc2Cl)n2nc(COc3ccc(Cl)cc3Cl)sc2n1`: the inhibition at 10 ppm in the assay with Bipolaris oryzae [1] turned out to be 61.4%; in the assay with Aspergillus niger [3], 64.5%. The values for the inhibition at 1000 ppm with Aspergillus niger [2] and with Bipolaris oryzae [6] were 88.6% and 90.4%, respectively. The Activity with Sorghum halepense was 100%; in the assay on Setaria viridis it was 100%; with Triticum aestivum, 20%; with Echinochloa crus-galli, 100%; in the assay with Abutilon theophrasti, 100%. The inhibition at 100 ppm in the assay on Aspergillus niger [4] turned out to be 74.4%; with Bipolaris oryzae [5], 78.6%.
With `CC(=O)NC(=S)Nc1nnc(COc2ccc(C)cc2C)s1`, the results for the inhibition at 10 ppm in the assay with Bipolaris oryzae [1] and in the assay with Aspergillus niger [3] were 20.2% and 20.5%, respectively. Besides, the inhibition at 1000 ppm with Aspergillus niger [2] worked out at 55.2%; in the assay on Bipolaris oryzae [6], 60.2%. Further, the inhibition at 100 ppm in the assay with Aspergillus niger [4] turned out to be 31.4%; in the assay with Bipolaris oryzae [5] it was 38.4%.
Regarding `O=c1c2ccccc2nc2sc(COc3ccc(Cl)cc3Cl)nn12`, the inhibition at 10 ppm with Bipolaris oryzae [1] turned out to be 23.4%; in the assay on Aspergillus niger [3], 12.6%. Besides, the inhibition at 1000 ppm in the assay on Aspergillus niger [2] stood at 43.1%; in the assay with Bipolaris oryzae [6], 54.4%. Moreover, the Activity with Sorghum halepense stood at 60%; with Setaria viridis, 30%; with Triticum aestivum, 50%; in the assay with Echinochloa crus-galli, 80%; in the assay with Abutilon theophrasti it was 20%. The inhibition at 100 ppm in the assay on Aspergillus niger [4] was 25%; with Bipolaris oryzae [5], 31.8%.
Take `Cc1ccc(OCc2nn3c(=O)c4ccccc4nc3s2)cc1`: the inhibition at 10 ppm in the assay on Bipolaris oryzae [1] is 25.2%; with Aspergillus niger [3] it was 13.7%. Also, the results for the inhibition at 1000 ppm in the assay on Aspergillus niger [2] and in the assay on Bipolaris oryzae [6] were 46% and 56.2%, respectively. In addition, the Activity in the assay on Sorghum halepense came to 50%; in the assay on Setaria viridis it was 40%; in the assay with Triticum aestivum it was 40%; in the assay with Echinochloa crus-galli it was 10%; with Abutilon theophrasti it was 10%. For the same compound, the values for the inhibition at 100 ppm with Aspergillus niger [4] and in the assay on Bipolaris oryzae [5] were 25.4% and 35%, respectively.
Consider `O=c1c2ccccc2nc2sc(COc3ccccc3Cl)nn12`, for which the inhibition at 10 ppm amounted to 30.8% in the assay on Bipolaris oryzae [1] and 19.2% in the assay on Aspergillus niger [3]. Besides, the inhibition at 1000 ppm in the assay with Aspergillus niger [2] turned out to be 51.3%; with Bipolaris oryzae [6], 61.4%. In addition, the Activity came to 40% in the assay on Sorghum halepense; 70% with Setaria viridis; 60% in the assay on Triticum aestivum; 20% in the assay on Echinochloa crus-galli; 20% in the assay with Abutilon theophrasti. The inhibition at 100 ppm in the assay with Aspergillus niger [4] amounted to 30.2%; in the assay with Bipolaris oryzae [5] it was 40.1%.
On to `S=c1nc(COc2ccc(Cl)cc2Cl)n2nc(COc3ccc(Cl)cc3)sc2n1`, for which the inhibition at 10 ppm with Bipolaris oryzae [1] was 60.6%; with Aspergillus niger [3], 68.4%. The inhibition at 1000 ppm stood at 87.2% with Aspergillus niger [2] and 88.2% in the assay with Bipolaris oryzae [6]. For the same compound, the Activity is reported as 40% in the assay on Sorghum halepense; 20% with Setaria viridis; 50% with Triticum aestivum; 30% with Echinochloa crus-galli; 30% with Abutilon theophrasti. Further, the inhibition at 100 ppm in the assay with Aspergillus niger [4] worked out at 74.2%; in the assay with Bipolaris oryzae [5], 75.4%.
